Counter-ions that a name gives are not always drawn.
Columns and labels:
CYP11B1(cortisol) = target: T1, CYP11B1(cortisol) (Homo sapiens, UniProt P15538); test: Inhibition of cortisol production in NCI-H295R cells; format: cell-based; conditions: inhibitory activity on cortisol production, read-out: Cortisol (cell)
T1 construct: Thus, the NCI-H295R cells have CYP11 B1 (steroid 11 β-hydroxylase); host or cells: NCI-H295R (human adrenocortical carcinoma)
T1 sequence (P15538 25-503): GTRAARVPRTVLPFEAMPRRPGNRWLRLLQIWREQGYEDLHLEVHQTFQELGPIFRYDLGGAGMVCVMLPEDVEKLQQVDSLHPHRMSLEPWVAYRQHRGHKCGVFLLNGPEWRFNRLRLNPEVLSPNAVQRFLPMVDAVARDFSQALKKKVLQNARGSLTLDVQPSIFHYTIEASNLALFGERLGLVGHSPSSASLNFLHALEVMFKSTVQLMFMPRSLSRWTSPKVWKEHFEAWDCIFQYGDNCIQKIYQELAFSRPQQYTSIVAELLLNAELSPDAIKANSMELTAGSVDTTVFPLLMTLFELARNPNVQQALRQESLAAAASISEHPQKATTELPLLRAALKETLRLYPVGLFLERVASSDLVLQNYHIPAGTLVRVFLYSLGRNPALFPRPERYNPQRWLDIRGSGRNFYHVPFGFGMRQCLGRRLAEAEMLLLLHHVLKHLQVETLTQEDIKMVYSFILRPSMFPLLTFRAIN
Text: The in vitro inhibitory activities for CYP11B1 can be determined by the following assay.
The cell line NCI-H295R was originally isolated from an adrenocortical carcinoma and has been characterized in the literature through the stimulable secretion of steroid hormones and the presence of the enymes essential for steroidogenesis. Thus, the NCI-H295R cells have CYP11 B1 (steroid 11 β-hydroxylase). The cells show the physiological property of zonally undifferentiated human foetal adrenocortical cells which, however, have the capacity to produce the steroid hormones which are formed in the three, phenotypically distinguishable zones in the adult adrenal cortex.
The NCI-H295R cells (American Type Culture Collection, ATCC, Rockville, Md., USA) are grown in Dulbeoco's Modified Eagle'Ham F-12 Medium (DME/F12), which has been supplemented with Ulroser SF Serum (Soprachem, Cergy-Saint-Christophe, France), insulin, transferrin, selenite (I-T-S, Becton Dickinson Biosiences, Franklin lakes, NJ, USA) and antibiotics in 75 cm^2 cell culture vessels at 37° C. and in a 95% air-5% carbon dioxide atmosphere. The cells are subsequently transferred for colony formation into a 24-well incubation vessel. They are cultivated there in DME/F12 medium, which is now supplemented with 0.1% bovine serum instead of Ultroser SF for 24 hours. The experiment is initiated by cultivating the cells in DME/F12 medium which is supplemented with 0.1% bovine serum albumin and test compound, in the presence or absence of cell stimulants, for 72 hours. The test substance is added in a concentration range from 0.2 nanomolar to […]. Cell stimulants which can be used are angiotensin 11 ([…] or 100 nanomolar), potassium ions (16 millimolar), forskolin (10 micromolar) or a combination of two stimulants.
The excretion of aldosterone, cortisol, corticosterone and estradiol/estrone into the culture medium can be detected and quantified by commercially available, specific monoclonal antibodies in radioimmunoassays in accordance with the manufacturers instructions.
Inhibition of the release of certain steroids can be used as a measure of the respective enzyme inhibition by the added test compounds. The dose-dependent inhibition of enzymic activity by a compound is calculated by means of an inhibition plot which is characterized by an IC50.
The IC50 values for active test compounds are ascertained by a simple linear regression analysis in order to construct inhibition plots without data weighting. The inhibition plot is calculated by fitting a 4-parameter logistic function to the raw data points using the least squares method. The equation of the 4-parameter logistic function is calculated as follows: Y=(d−a)/((1+(x/c)b))+a, where: a=minimum data level, b=gradient, I […], d=maximum data level, x=inhibitor concentration.
The inhibition activity of CYP11B1 production can also be expressed in percentage inhibition (% inhibition) at a given concentration (e.g. % inhibition at 1 μM), which is the cortisol level when cell is treated with the given concentration of a compound of the invention (e.g. concentration of 1 μM) versus the cortisol excretion when cell is free of the compound of the invention. % inhibition cortisol production=[(Y′−X′)/Y′]×100 wherein X′ is the level of cortisol when the cell is treated with a compound according to anyone of Formulae I to V, or a pharmaceutically acceptable salt thereof; and Y′ is the level of cortisol when the cell is free of compound according to anyone of Formulae I to V.

CYP11B2 (aldosterone) = target: T2, CYP11B2 (aldosterone) (Homo sapiens, UniProt P19099); test: Inhibition of aldosterone production in NCI-H295R cells (Ang II stimulated, SPA); format: cell-based; conditions: inhibitory activity on aldosterone production, read-out: Aldosterone (cell)
T2 construct: host or cells: NCI-H295R (human adrenocortical carcinoma)
T2 sequence (P19099 25-503): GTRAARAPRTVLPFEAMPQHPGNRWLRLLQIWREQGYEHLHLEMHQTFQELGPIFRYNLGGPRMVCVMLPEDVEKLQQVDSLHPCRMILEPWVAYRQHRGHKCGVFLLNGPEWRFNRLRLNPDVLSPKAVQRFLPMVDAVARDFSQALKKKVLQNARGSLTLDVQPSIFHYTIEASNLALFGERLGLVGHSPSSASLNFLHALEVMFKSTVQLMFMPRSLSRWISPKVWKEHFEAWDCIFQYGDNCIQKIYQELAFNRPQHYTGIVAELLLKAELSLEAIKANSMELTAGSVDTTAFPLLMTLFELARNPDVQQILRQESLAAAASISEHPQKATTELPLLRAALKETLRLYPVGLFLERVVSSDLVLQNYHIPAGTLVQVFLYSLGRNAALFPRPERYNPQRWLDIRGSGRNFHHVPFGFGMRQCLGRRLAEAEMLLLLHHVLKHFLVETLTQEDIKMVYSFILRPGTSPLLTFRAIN
Text: In particular, the aldosterone synthase inhibitory activities in vitro can be determined by the following assay.
Human adrenocortical carcinoma NCI-H295R cell line was obtained from American Type Culture Collection (Manassas, Va.). Insulin/transferrin/selenium (ITS)-A supplement (100×), DMEM/F-12, antibiotic/antimycotic (100×), and fetal bovine serum (FBS) were purchased from Invitrogen (Carlsbad, Calif.). Anti-mouse PVT scintillation proximity assay (SPA) beads and NBS 96-well plates were obtained from GE Health Sciences (Piscataway, N.J.) and Corning (Acton, Mass.), respectively. Solid black 96-well flat bottom plates were purchased from Costar (Corning, N.Y.). Aldosterone and angiotensin (Ang II) were purchased from Sigma (St. Louis, Mo.). D-[1,2,6,7-^3H(N)]aldosterone was acquired from PerkinElmer (Boston, Mass.). Nu-serum was a product of BD Biosciences (Franklin Lakes, N.J.).
For in vitro measurement of aldosterone activity, human adrenocortical carcinoma NCI-H295R cells are seeded in NBS 96-well plates at a density of 25,000 cells/well in 100 μl of a growth medium containing DMEM/F12 supplemented with 10% FCS, 2.5% Nu-serum, 1 μg ITS/ml, and 1× antibiotic/antimycotic. The medium is changed after culturing for 3 days at 37° C. under an atmosphere of 5% CO2/95% air. On the following day, cells are rinsed with 100 μl of phosphate-buffered saline (PBS) and incubated with 100 μl of treatment medium containing 1 μM Ang II and a compound at different concentrations in quadruplicate wells at 37° C. for 24 hr. At the end of incubation, 50 μl of medium is withdrawn from each well for measurement of aldosterone production by an SPA using mouse anti-aldosterone monoclonal antibodies.
Measurement of aldosterone activity can also be performed using a 96-well plate format. Each test sample is incubated with 0.02 μCi of D-[1,2,6,7-^3H(N)]aldosterone and 0.3 μg of anti-aldosterone antibody in PBS containing 0.1% Triton X-100, 0.1% bovine serum albumin, and 12% glycerol in a total volume of 200 μl at room temperature for 1 hr. Anti-mouse PVT SPA beads (50 μl) are then added to each well and incubated overnight at room temperature prior to counting in a Microbeta plate counter. The amount of aldosterone in each sample is calculated by comparing with a standard curve generated using known quantities of the hormone.
The inhibition activity of aldosterone production can also be expressed in percentage inhibition (% inhibition) at a given concentration (e.g. % inhibition at 1 μM), which is the aldosterone level when the cell is treated with the given concentration of a compound of this invention (e.g. concentration of 1 μM) versus the aldosterone excretion when cell is free of the compound of the invention: % inhibition aldosterone production=[(Y−X)/Y]×100 wherein X is the level of aldosterone when the cell is treated with a compound according to anyone of Formulae I to V, or a pharmaceutically acceptable salt thereof; and Y is the level of aldosterone when the cell is free of compound according to anyone of Formulae I to V.

IC50 (CYP11B1(cortisol))	IC50 (CYP11B2 (aldosterone))	Compound
3390 nM	132 nM	COc1cc(-c2cnccc2C(C)O)ccc1C#N (single isomer, unassigned) [Example 14 (enantiomer-1)]
	261 nM	CC1OC(=O)c2cncc(-c3ccc(C#N)c(Cl)c3)c21 (stereo not shown) [Example 24, 2-chloro-4-(1-methyl-3-oxo-1,3-dihydrofuro[3,4-c]pyridin-7-yl)benzonitrile]
672 nM	76.5 nM	CC(O)c1ccncc1-c1ccc(Cl)c(Cl)c1 (stereo not shown) [Example 46, 1-[3-(3,4-Dichloro-phenyl)-pyridin-4-yl]ethanol]
15000 nM	154 nM	CC(C)(O)c1c(F)cncc1-c1ccc(C#N)c(Cl)c1 [Example 32, 2-Chloro-4-[5-fluoro-4-(1-hydroxy-1-methyl-ethyl)-pyridin-3-yl]-benzonitrile]
367 nM	41.5 nM	CC(O)c1c(F)cncc1-c1ccc2cc(C#N)ccc2c1 (single isomer, unassigned) [5 (enantiomer-1), 6-(5-fluoro-4-(1-hydroxyethyl)pyridin-3-yl)-2-naphthonitrile]
4240 nM	144 nM	CC(C)OCC(O)c1c(F)cncc1-c1ccc(C#N)c(Cl)c1 (stereo not shown) [Example 30, 2-Chloro-4-[5-fluoro-4-(1-hydroxy-2-isopropoxy-ethyl)-pyridin-3-yl]-benzonitrile hydrochloride]
1070 nM	2.5 nM	CC(O)c1c(F)cncc1-c1cc2cc(Cl)c(F)cc2o1 (single isomer, unassigned) [Example 13d (enantiomer-2), 1-(3-(5-chloro-6-fluorobenzofuran-2-yl)-5-fluoropyridin-4-yl)ethanol]
12600 nM	120 nM	Cn1c(-c2cnccc2CO)nc2ccc(Cl)cc21 [Example 37, [3-(6-Chloro-1-methyl-1H-benzoimidazol-2-yl)-pyridin-4-yl]-methanol]

Compound	IC50 (CYP11B1(cortisol))	IC50 (CYP11B2 (aldosterone))
CC(O)c1c(F)cncc1-c1ccc(C#N)c(Cl)c1 (single isomer, unassigned) [Example 16 (enantiomer-2)]	9420 nM	106 nM
N#Cc1ccc(-c2cnccc2C2CCO2)cc1Cl (single isomer, unassigned) [Example 28 (enantiomer-1), 2-chloro-4-(4-(oxetan-2-yl)pyridin-3-yl)benzonitrile]	783 nM	23.5 nM
